Entries after “also recorded” stand apart in the source; their conditions may differ.
Key:
[1] = system: RNA treated with formaldehyde; conditions: Karmakar et al., Nature Chemistry 7: 752-758 (2015); cited from earlier work
PFA-fixed PBMCs = assay: Bulk un-fixing of PFA-fixed PBMCs, bulk RNA isolation and bulk RNA sequencing (Example 1); format: cell-based; conditions: 4% PFA-fixed PBMCs, 50 mM un-fixing agent, 0.2% SDS, 10 mU/mL Proteinase K, 40° C. 2 h; for complexity of the transcriptomic library relative to no treatment of the fixed PBMCs (FIG. 8): estimated with Preseq
Method: Un-fixing agent solutions: the un-fixing agent of compounds (1), (4), (8), and (11) were each formulated in 30 mmol Tris buffer, pH 6.8 to a target concentration of 80 mM and the pH was adjusted to pH 6.5 using 2M NaOH. The final formulation was filtered through a 0.2 μm nylon syringe filter before addition into final composition of 50 mM of the un-fixing agent compound, 0.2% SDS, 10 mU/mL of Proteinase K and 0.2 U/mL RNAse inhibitor in 30 mM Tris, pH 6.8.
Bulk Un-fixing: PBMCs were fixed with 4% PFA for 24 h at 4° C. and quenched with 10% Fetal Bovine Serum (“FBS”) in PBS. The PFA-fixed PBMCs were treated with an un-fixing agent solution of compounds (1), (4), (8), or (11) formulated as described above at 40° C. for 2 h. Three different control samples also were prepared without un-fixing agent added: (1) fresh PBMCs (“Fresh Pellet” control); (2) PBMCs fixed with 4% PFA for 24 h then treated with 0.2% SDS, 10 mU/mL Proteinase K, and 0.2 U/mL RNAse inhibitor in 30 mM Tris, pH 6.8 at 40° C. for 2 h (“Fixed+PK, No UF agt.” control); and (3) PBMCs fixed with 4% PFA for 24 h (“fixed no un-fixing agent” control).
Bulk RNA isolation: After the bulk un-fixing treatment of the PFA-fixed PBMCs, the resulting treated (and control) samples were centrifuged at 450 g for 5 min and pellet as well as supernatant were collected. RNA isolation from collected pellets and supernatants was performed using RNeasy Plus Mini Kit (Qiagen, Cat #_74134) and RNeasy MinElute Cleanup Kit (Qiagen, Cat #74204), respectively. Isolated RNA was quantified using Qubit™ RNA HS Assay Kit (Invitrogen, Cat #Q32855) and Agilent RNA ScreenTape System (Agilent Technologies).
Bulk RNA sequencing: RNA could not be isolated from the “fixed no un-fixing agent” control sample. […] The “Fresh Pellet” control data was obtained by sequencing following bulk RNA isolation using the Qiagen kit without performing the 10× Genomics Single Cell 3′V3 protocol described below. For the four un-fixing agent treated samples and the remaining control samples described above, cDNA amplification was performed using an equivalent of 10 ng RNA. Post cDNA amplification, library prep was performed according to the 10× Genomics Single Cell 3′V3 protocol (10× Genomics, Pleasanton, CA, USA). A 3000-cell load of fresh PBMCs was used as a single cell reference (“Fresh SC3P”) and library prep was performed using Single Cell 3′V3 protocol (10× Genomics, Pleasanton, CA, USA). The final libraries were sequenced to between 25 and 100 million reads on a NovaSeq 6000 sequencer (Illumina Inc., San Diego, CA, USA). Bulk library complexity was estimated using the software package Preseq, as described by Daley and Smith (see e.g., Daley and Smith, “Predicting the molecular complexity of sequencing libraries,” Nature Methods 10:325-327, 2013). Library complexity as used here refers to the estimated number of unique RNA molecules aligned properly to the transcriptome (i.e., reads considered to be informative and used for gene expression counting) as a function of all sequenced reads. Gene expression counts were down-sampled across libraries to match the lowest sequencing depth and pairwise gene expression correlations were computed as the Pearson correlation (R^2) of gene expression counts between samples. When comparing gene expression data from control, unfixed PBMCs, gene expression counts were summed across cells to produce pseudo-bulk gene expression counts, as is customary in commercial gene expression analysis software (e.g., 10× Genomics, Pleasanton, CA, USA).

PFA-fixed Jurkats = assay: Bulk un-fixing of PFA-fixed Jurkats with proline analog un-fixing agents and cold-active protease, RNA yield (Example 10); format: cell-based; conditions: 4% PFA-fixed Jurkats; 100 mM un-fixing agent, 10 U/mL ArcticZymes Proteinase where present; 14-25° C. 90 min then 80° C. 15 min
Method: B. Un-fixing agent stock solutions: the proline analog un-fixing agents of compounds (12), (13), (14), and (15) were each formulated in 50 mmol Tris buffer, pH 8.3 to a target concentration of 300 mM and the pH was adjusted to pH 8.3 using 2M NaOH. The final formulation was filtered through a 0.2 μm nylon syringe filter before addition into final composition of 100 mM of the un-fixing agent compound, 10 U/mL ArcticZymes Proteinase and 0.2 U/mL RNAse inhibitor in 50 mM Tris, pH 8.3.
C. Protease stock solution: A stock solution of 10 U/mL of the cold-active protease, ArcticZymes Proteinase (ArcticZymes Technologies ASA, Tromso, Norway) was stored at −20° C.
D. Bulk un-fixing/protease treatment of fixed cells: Jurkats were fixed with 4% PFA for 24 h at 4° C. and quenched with 10% Fetal Bovine Serum (“FBS”) in PBS. RNAse inhibitor was added to the fixed cell solution together with 10 U/mL of the cold-active protease, ArcticZymes Proteinase, 1 mM of the protease inhibitor, and 100 mM of one of each of the tested un-fixing agents: compound (8), (12), (13), (14), or (15). […]
E. Bulk RNA isolation: After the bulk un-fixing treatment of the PFA-fixed Jurkats, the resulting samples were centrifuged 5 minutes at 500 g, 4° C., and the supernatant and pellet fractions were collected separately. […] Isolated RNA was quantified using Qubit™ RNA HS Assay Kit (Invitrogen, Cat #Q32855).

Cc1ccc(N)c(P(=O)(O)O)c1 [(3), (2-amino-5-methylphenyl)phosphonic acid]
breakdown of aminal and hemi-aminal adducts in RNA treated with formaldehyde [1]: catalytically break down the aminal and hemi-aminal adducts

Cc1ccc(N)c(S(=O)(=O)O)c1 [(4), 2-amino-5-methylbenzenesulfonic acid]
RNA recovery per read sequenced relative to fixed PBMCs treated only with proteinase K and SDS (PFA-fixed PBMCs): increased RNA recovery per read sequenced | transcriptomic mapping relative to fixed PBMC samples not treated with an un-fixing agent (FIG. 7) (PFA-fixed PBMCs): increased the transcriptomic mapping | complexity of the transcriptomic library relative to no treatment of the fixed PBMCs (FIG. 8) (PFA-fixed PBMCs): higher complexity of the transcriptomic library

Cc1ccc(N)c(C(=O)O)c1 [Compound (1), 2-amino-5-methylbenzoic acid]
RNA recovery per read sequenced relative to fixed PBMCs treated only with proteinase K and SDS (PFA-fixed PBMCs): increased RNA recovery per read sequenced | recovery of RNA from the fixed biological sample (PFA-fixed PBMCs): highest recovery of RNA | transcriptomic mapping relative to fixed PBMC samples not treated with an un-fixing agent (FIG. 7) (PFA-fixed PBMCs): increased the transcriptomic mapping | complexity of the transcriptomic library relative to no treatment of the fixed PBMCs (FIG. 8) (PFA-fixed PBMCs): higher complexity of the transcriptomic library

Nc1ccncc1P(=O)(O)O [Compound (8), (4-aminopyridin-3-yl)phosphonic acid]
transcriptomic mapping relative to fixed PBMC samples not treated with an un-fixing agent (FIG. 7) (PFA-fixed PBMCs): decreased the transcriptomic mapping | complexity of the transcriptomic library relative to no treatment of the fixed PBMCs (FIG. 8) (PFA-fixed PBMCs): higher complexity of the transcriptomic library; also recorded: highest library complexity | Pellet Avg. RNA yield (PFA-fixed Jurkats): 54 ng | Supernatant Avg. RNA yield (PFA-fixed Jurkats): 200 ng

(2-amino-5-{[2-(2-poly-ethoxy)ethyl]carbamoyl} phenyl)phosphonic acid [(11)]
transcriptomic mapping relative to fixed PBMC samples not treated with an un-fixing agent (FIG. 7) (PFA-fixed PBMCs): decreased the transcriptomic mapping
